The numbers were not newly measured in article PMC3085280 (Tetrahedron, 2009), which cites them from elsewhere.

Molecules are shown by their SMILES.

The test system of this data set is κ-opioid.

On to `COC(=O)[C@@H]1C[C@H](OC(C)=O)C(=O)[C@H]2[C@@]1(C)CC[C@H]1C(=O)O[C@H](c3ccoc3)C[C@]21C` [Compound 1, Salvinorin A], for which the κ-opioid agonist activity result was “potent and selective κ-opioid agonist”.
